Experiments:
HepG2 cells [1] = assay: CCK8 cell viability / IC50 assay on HepG2 cells; settings: for % Cell Viability (10 μM): 72 h; for IC50: read-out: HepG2, IC50 (μM) 72 h
HepG2 cells [2] = assay: Annexin V-FITC/PI dual staining, flow cytometry apoptosis; format: cell-based, human; settings: 48 h
Procedure: HepG2 cells were treated with DMSO or different concentrations of 11m and 11t for 48 h, followed by staining with Annexin-V and PI. The proportion of apoptotic cells was then analyzed using flow cytometry. […] Compared to the control group, the proportion of apoptotic cells increased gradually with increasing drug concentrations (p < 0.01, p < 0.05).
HepG2 cells were seeded in 6-well plates at a density of […] and incubated for 24 h. They were then treated with 11m or 11t at concentrations of 2, 4, and 8 μM for 48 h. After digestion with trypsin without EDTA and washing with PBS, the cells were resuspended in 500 µL Binding Buffer at a concentration of 1 × 10^6 cells/mL. Then, 5 μL of Annexin V-FITC was added, mixed well, followed by the addition of 5 μL Propidium Iodide, mixed gently, and incubated in the dark at room temperature (25 °C) for 10 min. Detection was performed using a flow cytometer (BD Accuri™ C6 Plus) within 1 h.

HepG2 cells [3] = assay: Scratch wound healing assay; format: cell-based, human
Text: To investigate the effect of the compounds on the migration of wild-type liver cancer cells, we conducted wound healing and Transwell assays to assess changes in the migration ability of HepG2 cells after treatment with compounds 11m and 11t. […] The Transwell migration assay, another important method for evaluating cell migration, involves seeding tumor cells in a chamber and assessing their migration ability by counting the number of cells that pass through the membrane. […] These findings indicate that compounds 11m and 11t can inhibit the migration ability of liver cancer cells in a concentration-dependent manner.
HepG2 cells were seeded in 24-well plates, and when the cell density reached 95%, a vertical scratch was made along the edge of the plate cover using a yellow pipette tip. After washing with PBS, images of the scratches were taken at 0 h under a microscope, and each well was treated with 11m or 11t (0, 2, 4, and 8 μM) and incubated in a cell culture incubator. Images were taken at 12, 24, and 48 h after the scratch was made.

p-H2AX in HepG2 cells = assay: DNA damage immunofluorescence and Western blot of p-H2AX; format: cell-based, human; settings: HepG2, 2, 4, 8 μM
Procedure: Previous studies have reported that the phosphorylation of H2AX is a highly specific and sensitive molecular marker of DNA damage. To determine whether the inhibitory effects of compounds 11m and 11t on HepG2 cells are related to p-H2AX, we conducted immunofluorescence and Western blot analyses.
HepG2 cells were seeded in laser confocal culture dishes (Nest, Wuxi, China) and incubated for 24 h, followed by treatment with 11m or 11t (2, 4, and 8 μM) for 24 h. After washing with PBS, cells were fixed with 4% paraformaldehyde at room temperature for 20 min. After washing with PBS, cells were permeabilized with 0.5% Triton X-100 for 20 min, followed by further washing with PBS. Cells were then blocked with goat serum at room temperature for 1 h, followed by incubation with p-H2AX (Cell Signaling Technology, Beverly, MA, USA) at a dilution of 1:500 overnight at 4 °C. After washing with PBS, cells were incubated with Cy3 (Proteintech, Wuhan, China) at a dilution of 1:100 in the dark at room temperature for 1 h. After washing with PBS, nuclei were stained with DAPI for 5 min. Cells were observed and imaged using an oil immersion lens under a laser confocal microscope (Nikon, Tokyo, Japan).
HepG2 cells were seeded in 6-well plates and incubated for 24 h. […] Protein supernatants were mixed with loading buffer, denatured at 100 °C for 10 min, and quantified using BCA. […]

HepG2 cells [4] = assay: Colony formation assay; format: cell-based, human; settings: 7 days
Procedure: A colony formation assay is used to assess the ability of adherent cells to proliferate and form cell colonies on a plate, making it one of the key methods for evaluating cell proliferation. We also employed the colony formation assay to further confirm that compounds 11m and 11t can inhibit liver cancer cell proliferation (as shown in Figure 5). HepG2 cells were treated with low, medium, and high concentrations (2, 4, and 8 μmol/L) of the compounds for 7 days, followed by counting the number of cell colonies and analyzing the proliferation inhibition rate.
HepG2 cells were seeded in 6-well plates at a density of 500 cells per well and incubated at 37 °C for 24 h, followed by treatment with 11m or 11t (2, 4, and 8 μM) for 24 h. The medium was then replaced with fresh culture medium, and after 7 days, the culture medium was removed and washed with PBS. Cells were fixed with 4% paraformaldehyde at room temperature for 20 min, stained with 0.1% crystal violet staining solution at room temperature for 20 min, and excess staining solution was washed off with distilled water. The plates were dried at 37 °C, photographed, and the number of colonies was counted using ImageJ.

HepG2 cells [5] = assay: DAPI staining for apoptotic morphology; format: cell-based, human; settings: HepG2, 2, 4, 8 μM, 48 h
Procedure: To confirm the apoptosis-inducing activity of 11m and 11t in liver cancer cells, HepG2 cells were treated with different concentrations of compounds 11m and 11t for 48 h, followed by DAPI staining.
HepG2 cells were seeded in 48-well plates and incubated for 24 h, then treated with different concentrations of 11m and 11t (2, 4, and 8 μM) for 48 h. After removing the original culture medium, the cells were washed with PBS and fixed with 4% paraformaldehyde at room temperature for 20 min. After washing with PBS, the cells were stained with DAPI (10 μg/mL) in the dark at room temperature for 5 min. After washing with PBS, apoptotic morphological changes were observed using a fluorescence microscope.

| SMILES | % Cell Viability (10 μM) (HepG2 cells [1]) [%] | IC50 (HepG2 cells [1]) [µM] | total proportion of apoptotic HepG2 cells (HepG2 cells [2]; 2 μM) [%] | total proportion of apoptotic HepG2 cells (HepG2 cells [2]; 4 μM) [%] | total proportion of apoptotic HepG2 cells (HepG2 cells [2]; 8 μM) [%] | wound-healing rate (HepG2 cells [3]; HepG2, 2 μM, 12 h) [%] | wound-healing rate (HepG2 cells [3]; HepG2, 2 μM, 24 h) [%] | wound-healing rate (HepG2 cells [3]; HepG2, 2 μM, 48 h) [%] | wound-healing rate (HepG2 cells [3]; HepG2, 4 μM, 12 h) [%] | wound-healing rate (HepG2 cells [3]; HepG2, 4 μM, 24 h) [%] | wound-healing rate (HepG2 cells [3]; HepG2, 4 μM, 48 h) [%] | wound-healing rate (HepG2 cells [3]; HepG2, 8 μM, 12 h) [%] | wound-healing rate (HepG2 cells [3]; HepG2, 8 μM, 24 h) [%] | wound-healing rate (HepG2 cells [3]; HepG2, 8 μM, 48 h) [%] | expression of p-H2AX (p-H2AX in HepG2 cells) | colony formation in HepG2 cells (HepG2 cells [4]; 4 μM) | colony formation in HepG2 cells (HepG2 cells [4]; 8 μM) | apoptotic morphological changes (DAPI staining) (HepG2 cells [5]) |
| --- | --- | --- | --- | --- | --- | --- | --- | --- | --- | --- | --- | --- | --- | --- | --- | --- | --- | --- |
| COc1cc2ncnc(Nc3cccc(-c4cn(Cc5ccc(I)cc5)nn4)c3)c2cc1OCCCN1CCOCC1 [Compound 11m, N-(3-(1-(4-iodobenzyl)-1H-1,2,3-triazol-4-yl)phenyl)-7-methoxy-6-(3-morpholinopropoxy)quinazolin-4-amine] | 5.86 ± 0.04 | 3.08 ± 0.37 | 1.59 | 9.46 | 31.66 | 14.32 | 20.33 | 41.13 | 13.89 | 20.60 | 36.35 | 8.96 | 16.39 | 18.48 | increased | began to noticeably inhibit colony formation | almost completely suppressed | typical apoptotic characteristics |
| COc1cc2ncnc(Nc3cccc(-c4cn(Cc5cccc(I)c5)nn4)c3)c2cc1OCCCN1CCOCC1 [Compound 11t, N-(3-(1-(3-iodobenzyl)-1H-1,2,3-triazol-4-yl)phenyl)-7-methoxy-6-(3-morpholinopropoxy)quinazolin-4-amine] | 5.22 ± 0.36 | 3.6 ± 0.53 | 13.44 | 33.57 | 62.82 | 11.03 | 16.02 | 35.36 | 14.18 | 25.67 | 33.66 | 9.87 | 13.26 | 19.54 | increased | began to noticeably inhibit colony formation | almost completely suppressed | typical apoptotic characteristics |

Source: publication PMC11597353, “Synthesis of Novel Gefitinib-Conjugated 1,2,3-Triazole Derivatives and Their Effect of Inducing DNA Damage and Apoptosis in Tumor Cells” (Molecules, 2024)
